Experimental data: patent US6482411B1, “Methods of reducing bone loss with CD40 ligand” (Board of Regents, The University of Texas System, priority 1999, dated 2002)
Marks after values point to notes of the source that are not given here.

Key:
MLO-Y4 cells = experiment: FACS staining for Annexin V/propidium iodide in MLO-Y4 cells; format: cell-based, murine; settings: CD40L pretreatment 15 min where given, then dexamethasone or TNFα for 6 h
Protocol: (§1) The MLO-Y4 cells were pretreated with CD40L (0.5-1.5 μg/ml) for 15 mins. followed by treatment with either dexamethasone at 10^−6 M (10^−7M in earlier studies), TNFα at 1 ng/ml or etoposide at 50 μM for 6 hrs. The cells were cultured in 2.5% FBS/2.5% CS in α-MEM, 5% CO2, 37° C.
FACS Staining for Annexin V/Propidium Iodide: In early stages of apoptosis the cells lose membrane asymmetry and translocate the membrane phospholipid phosphatidylserine to the outer leaflet of the plasma membrane, where it can be detected by its high affinity binding to annexin V (Rillema, 1998). Annexin V is a calcium-dependent phospholipid-binding protein that has a high affinity for phosphatidylserine. Prolonged apoptosis can cause cell death and these non-viable cells stain positive for vital dye Propidium Iodide (PI) as well as Annexin V. Apoptotic cells stain Annexin V positive and Propidium iodide negative.
The staining protocol includes washing single cell suspension twice with PBS and resuspending in 1×binding buffer (0.1 M HEPES/NaOH, pH 7.4; […]; 25 mM CaCl2) at a concentration of one million cells/ml. The cells are aliquoted (100 μl) in polypropylene tubes, incubated with annexin V FITC (5 μl) and propidium iodide (10 μl) for 15 minutes at 4° C. in the dark, and analyzed by flow cytometry within 1 hour. […]

[1] = system: MLO-Y4 osteocytic cell line; experiment: Trypan blue exclusion (cell death) in MLO-Y4 cells; format: cell-based, murine; settings: CD40L pretreatment 15 min where given, then dexamethasone 10^-6 M (10^-7 M earlier), TNFα or etoposide 50 μM for 6 h
Protocol: The MLO-[…][…] (0.5-1.5 μg/ml) for 15 mins. followed by treatment with either dexamethasone at 10^-6 M (10^-7M in earlier studies), TNFα at 1 ng/ml or etoposide at 50 μM for 6 hrs. […] Trypan Blue Exclusion: Staining of cultured cells with vital dyes such as trypan blue is commonly used approach to quantify cell death. This is based on the premise that viable cells with intact membranes will exclude specific dyes such as trypan blue, which can easily be quantified under light microscopy ([…], 1998). The percentage of trypan blue positive cells in each culture condition was used to calculate cell survival. This method is […] for screening multiple samples or treatment conditions, but can underestimate cell death since membrane integrity can be intact until late in apoptosis. Trypan vital dye staining is not specific for apoptosis and will also stain necrotic cells. This was confirmed by additional analysis discussed below. Apoptosis of MLO-Y4 or calvaria cells was quantified by trypan blue staining (Jilka et al., 1998). Nonadherent cells were combined with adherent cells released from the culture dish using trypsin-EDTA, resuspended in medium containing serum, and collected by centrifugation. […] At least 100 cells per condition were counted. Trypan vital dye staining is not specific for apoptosis and will also stain necrotic cells. […]

[2] = system: MLO-Y4 cells stably transduced with nuclear GFP; experiment: GFP nuclear stain apoptosis assay in MLO-Y4 cells; format: cell-based, murine; settings: CD40L pretreatment 15 min where given, then dexamethasone, TNFα or etoposide 50 μM for 6 h
Protocol: as §1
GFP Nuclear Stain: Visualization of morphological features of apoptosis in the nucleus of the cells, such as chromatin condensation and nuclear fragmentation, was determined in this assay. During apoptosis the nucleus becomes shrunken and pyknotic as a result of DNA degradation. MLO-Y4 cells were stably transduced with a retroviral vector carrying the green fluorescent protein (GFP) CDNA with a nuclear localization sequence designed to target the GFP to the nucleus (Plotkin et al., 1998). […] At least 500 cells from fields selected by systematic random ampling were examined for each condition (Plotkinn et al., 1999; Jilka et al., 1999).

[3] = approximately 2,000 women randomized; cited from earlier work
[4] = cited from earlier work

Row | Structure (SMILES) | Trypan Blue, percent positive cells (dead) [1] [%] | GFP, percent positive cells (apoptotic) [2] | also measured
1 | C[C@@H]1C[C@H]2[C@@H]3CCC4=CC(=O)C=C[C@]4(C)[C@@]3(F)[C@@H](O)C[C@]2(C)[C@@]1(O)C(=O)CO [Dex, dexamethasone] | 13.7 ± 1.4 | 24.0* percent | Annexin V, percent positive cells (apoptotic) (MLO-Y4 cells): 23.7 ± 1.6%
2 | COc1cc([C@@H]2c3cc4c(cc3[C@@H](O[C@@H]3O[C@@H]5CO[C@@H](C)O[C@H]5[C@H](O)[C@H]3O)[C@H]3COC(=O)[C@H]23)OCO4)cc(OC)c1O [Etoposide, etoposide] | 15.8 ± 2.0 | 15.9* percent | 
3 | NCCCC(O)(P(=O)(O)O)P(=O)(O)O [alendronate] |  |  | women with vertebra fractures versus placebo [3]: significantly fewer
4 | O=C(c1ccc(OCCN2CCCCC2)cc1)c1c(-c2ccc(O)cc2)sc2cc(O)ccc12 [raloxifene] |  |  | proportion of women reporting hot flashes ([4]; 60 mg raloxifene daily, placebo 22.7%, no significant difference): 26.3%; endometrial proliferation ([4]; over 600 menopausal women): without inducing endometrial proliferation
